Results: ChEMBL document CHEMBL3885881, “DrugMatrix”

Species: Rattus norvegicus
Experiment: DrugMatrix - Regimen: Daily Repeat
Format: toxicity, organism-based, Sprague-Dawley
Set-up: regimen Daily Repeat, gender Male, age 6-8 weeks
Conditions: in vivo, po, route oral GAVAGE, vehicle .5 % CMC; for ABSOLUTE BASOPHIL / ABSOLUTE EOSINOPHIL / ABSOLUTE LYMPHOCYTE / ABSOLUTE MONOCYTE / ABSOLUTE SEGMENTED NEUTROPHIL / BASOPHIL / EOSINOPHIL / ERYTHROCYTE COUNT / HEMATOCRIT / HEMOGLOBIN / LEUKOCYTE COUNT / LYMPHOCYTE / MEAN CORPUSCULAR HEMOGLOBIN / MEAN CORPUSCULAR HEMOGLOBIN CONCENTRATION / MEAN CORPUSCULAR VOLUME / MONOCYTE / NEUTROPHIL / NUCLEATED RED BLOOD CELLS / PLATELET COUNT: tissue Blood; for ALANINE AMINOTRANSFERASE / ALBUMIN / ALKALINE PHOSPHATASE / ASPARTATE AMINOTRANSFERASE / BLOOD UREA NITROGEN / CARBON DIOXIDE / CHLORIDE / CHOLESTEROL / CREATINE PHOSPHOKINASE / CREATININE / GLUCOSE / LACTATE DEHYDROGENASE / LIPASE / PHOSPHORUS / POTASSIUM / SODIUM / TOTAL BILIRUBIN / TOTAL PROTEIN / URIC ACID: tissue Plasma
[1] = 0 mg/kg, 72 h, dose level Control, time 3 day
[2] = 0 mg/kg, 120 h, dose level Control, time 5 day
[3] = 10 mg/kg, 72 h, dose level Low, time 3 day

SMILES: COc1c(C)c2c(c(O)c1C/C=C(\C)CCC(=O)OCCN1CCOCC1)C(=O)OC2 [MYCOPHENOLATE MOFETIL]
- ABSOLUTE BASOPHIL [1]: 0 CELLS/uL
- ABSOLUTE EOSINOPHIL [1]: 0 CELLS/uL
- ABSOLUTE LYMPHOCYTE [1]: 12191.17 CELLS/uL
- ABSOLUTE MONOCYTE [1]: 183.17 CELLS/uL
- ABSOLUTE SEGMENTED NEUTROPHIL [1]: 1192.33 CELLS/uL
- BASOPHIL [1]: 0%
- EOSINOPHIL [1]: 0%
- ERYTHROCYTE COUNT [1]: 5.51 x10E6/uL
- HEMATOCRIT [1]: 35.45%
- HEMOGLOBIN [1]: 13.82 G/DL
- LEUKOCYTE COUNT [1]: 13.57 x10E3/uL
- LYMPHOCYTE [1]: 89.83%
- MEAN CORPUSCULAR HEMOGLOBIN [1]: 25.1 pg
- MEAN CORPUSCULAR HEMOGLOBIN CONCENTRATION [1]: 38.98 G/DL
- MEAN CORPUSCULAR VOLUME [1]: 64.42 fL
- MONOCYTE [1]: 1.33%
- NEUTROPHIL [1]: 8.83%
- NUCLEATED RED BLOOD CELLS [1]: 0 /100WBC
- PLATELET COUNT [1]: 1118.17 x10E3/uL
- ALANINE AMINOTRANSFERASE [1]: 55 u/L
- ALBUMIN [1]: 4.15 G/DL
- ALKALINE PHOSPHATASE [1]: 449.5 u/L
- ASPARTATE AMINOTRANSFERASE [1]: 112.83 u/L
- BLOOD UREA NITROGEN [1]: 17.33 mg/dL
- CARBON DIOXIDE [1]: 29.5 mmol/L
- CHLORIDE [1]: 101 MEQ/L
- CHOLESTEROL [1]: 70 mg/dL
- CREATINE PHOSPHOKINASE [1]: 1325.83 u/L
- CREATININE [1]: 0.18 mg/dL
- GLUCOSE [1]: 171.5 mg/dL
- LACTATE DEHYDROGENASE [1]: 386 u/L
- LIPASE [1]: 10 u/L
- PHOSPHORUS [1]: 11.57 mg/dL
- POTASSIUM [1]: 6.21 MEQ/L
- SODIUM [1]: 141.65 MEQ/L
- TOTAL BILIRUBIN [1]: 0.15 mg/dL
- TOTAL PROTEIN [1]: 5.75 G/DL
- URIC ACID [1]: 1.28 mg/dL
- ABSOLUTE BASOPHIL [2]: 0 CELLS/uL
- ABSOLUTE EOSINOPHIL [2]: 138.17 CELLS/uL
- ABSOLUTE LYMPHOCYTE [2]: 13283.17 CELLS/uL
- ABSOLUTE MONOCYTE [2]: 303.83 CELLS/uL
- ABSOLUTE SEGMENTED NEUTROPHIL [2]: 1308.17 CELLS/uL
- BASOPHIL [2]: 0%
- EOSINOPHIL [2]: 1%
- ERYTHROCYTE COUNT [2]: 5.32 x10E6/uL
- HEMATOCRIT [2]: 33.8%
- HEMOGLOBIN [2]: 13.63 G/DL
- LEUKOCYTE COUNT [2]: 15.03 x10E3/uL
- LYMPHOCYTE [2]: 88.33%
- MEAN CORPUSCULAR HEMOGLOBIN [2]: 25.68 pg
- MEAN CORPUSCULAR HEMOGLOBIN CONCENTRATION [2]: 40.35 G/DL
- MEAN CORPUSCULAR VOLUME [2]: 63.67 fL
- MONOCYTE [2]: 1.83%
- NEUTROPHIL [2]: 8.83%
- NUCLEATED RED BLOOD CELLS [2]: 0 /100WBC
- PLATELET COUNT [2]: 1097.5 x10E3/uL
- ALANINE AMINOTRANSFERASE [2]: 54.5 u/L
- ALBUMIN [2]: 4.27 G/DL
- ALKALINE PHOSPHATASE [2]: 337 u/L
- ASPARTATE AMINOTRANSFERASE [2]: 94.67 u/L
- BLOOD UREA NITROGEN [2]: 17 mg/dL
- CARBON DIOXIDE [2]: 28.33 mmol/L
- CHLORIDE [2]: 101.5 MEQ/L
- CHOLESTEROL [2]: 71.33 mg/dL
- CREATINE PHOSPHOKINASE [2]: 628.17 u/L
- CREATININE [2]: 0.19 mg/dL
- GLUCOSE [2]: 177.83 mg/dL
- LACTATE DEHYDROGENASE [2]: 500.5 u/L
- LIPASE [2]: 9.5 u/L
- PHOSPHORUS [2]: 12.3 mg/dL
- POTASSIUM [2]: 5.63 MEQ/L
- SODIUM [2]: 143.03 MEQ/L
- TOTAL BILIRUBIN [2]: 0.2 mg/dL
- TOTAL PROTEIN [2]: 6.02 G/DL
- URIC ACID [2]: 1.5 mg/dL
- ABSOLUTE BASOPHIL [3]: 0 CELLS/uL
- ABSOLUTE EOSINOPHIL [3]: 76.67 CELLS/uL
- ABSOLUTE LYMPHOCYTE [3]: 12148 CELLS/uL
- ABSOLUTE MONOCYTE [3]: 38.33 CELLS/uL
- ABSOLUTE SEGMENTED NEUTROPHIL [3]: 870.33 CELLS/uL
- BASOPHIL [3]: 0%
- EOSINOPHIL [3]: 0.67%
- ERYTHROCYTE COUNT [3]: 5.1 x10E6/uL
- HEMATOCRIT [3]: 32.07%
- HEMOGLOBIN [3]: 13.3 G/DL
- LEUKOCYTE COUNT [3]: 13.13 x10E3/uL
- LYMPHOCYTE [3]: 92%
- MEAN CORPUSCULAR HEMOGLOBIN [3]: 26.1 pg
- MEAN CORPUSCULAR HEMOGLOBIN CONCENTRATION [3]: 41.47 G/DL
- MEAN CORPUSCULAR VOLUME [3]: 62.87 fL
- MONOCYTE [3]: 0.33%
- NEUTROPHIL [3]: 7%
- NUCLEATED RED BLOOD CELLS [3]: 0 /100WBC
- PLATELET COUNT [3]: 1283 x10E3/uL
- ALANINE AMINOTRANSFERASE [3]: 58 u/L
- ALBUMIN [3]: 4.13 G/DL
- ALKALINE PHOSPHATASE [3]: 363.33 u/L
- ASPARTATE AMINOTRANSFERASE [3]: 110.33 u/L
- BLOOD UREA NITROGEN [3]: 16.33 mg/dL
- CARBON DIOXIDE [3]: 26.33 mmol/L
- CHLORIDE [3]: 102.67 MEQ/L
- CHOLESTEROL [3]: 70.67 mg/dL
- CREATINE PHOSPHOKINASE [3]: 1302.67 u/L
- CREATININE [3]: 0.14 mg/dL
- GLUCOSE [3]: 164 mg/dL
- LACTATE DEHYDROGENASE [3]: 334.67 u/L
- LIPASE [3]: 9.67 u/L
- PHOSPHORUS [3]: 13.07 mg/dL
- POTASSIUM [3]: 5.93 MEQ/L
- SODIUM [3]: 144.23 MEQ/L
- TOTAL BILIRUBIN [3]: 0.1 mg/dL
- TOTAL PROTEIN [3]: 5.53 G/DL
- URIC ACID [3]: 1.57 mg/dL
